Measurements published in ChEMBL document CHEMBL1135566, “Synthesis of a novel fluorescent probe for estrogen receptor” (Bioorg Med Chem Lett, 2002).

Biological target: T1, Estrogen receptor (Homo sapiens, UniProt P03372)
T1 sequence (P03372 whole entry): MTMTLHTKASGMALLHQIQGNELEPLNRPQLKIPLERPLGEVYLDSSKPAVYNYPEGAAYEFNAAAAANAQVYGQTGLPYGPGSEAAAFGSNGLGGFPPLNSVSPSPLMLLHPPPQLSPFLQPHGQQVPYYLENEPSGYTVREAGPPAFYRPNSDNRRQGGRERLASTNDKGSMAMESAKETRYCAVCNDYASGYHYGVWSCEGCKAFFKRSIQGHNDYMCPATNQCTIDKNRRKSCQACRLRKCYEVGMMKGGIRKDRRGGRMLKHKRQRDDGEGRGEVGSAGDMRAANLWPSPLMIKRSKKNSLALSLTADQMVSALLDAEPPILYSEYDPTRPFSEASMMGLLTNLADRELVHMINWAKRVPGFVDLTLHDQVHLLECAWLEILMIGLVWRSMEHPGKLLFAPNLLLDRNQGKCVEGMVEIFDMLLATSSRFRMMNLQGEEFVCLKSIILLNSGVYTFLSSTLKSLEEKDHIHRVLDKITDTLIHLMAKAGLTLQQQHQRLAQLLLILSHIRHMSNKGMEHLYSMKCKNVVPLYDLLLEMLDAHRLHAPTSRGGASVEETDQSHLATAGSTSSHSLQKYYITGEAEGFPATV
Test: Binding constant for Estrogen receptor alpha

For `CC/C(=C(/CC)c1ccc(OCCCC(=O)NCc2ccc(-c3c4ccc(=O)cc-4oc4cc(O)ccc34)c(C(=O)O)c2)cc1)c1ccc(O)cc1`, the Kd was 5.8 nM.
